Measurements: paper PMC5734605 (Journal of Medicinal Chemistry, 2017)

Target: TbNMT (Trypanosoma brucei brucei, UniProt Q388H8)
Sequence (Q388H8 1-446): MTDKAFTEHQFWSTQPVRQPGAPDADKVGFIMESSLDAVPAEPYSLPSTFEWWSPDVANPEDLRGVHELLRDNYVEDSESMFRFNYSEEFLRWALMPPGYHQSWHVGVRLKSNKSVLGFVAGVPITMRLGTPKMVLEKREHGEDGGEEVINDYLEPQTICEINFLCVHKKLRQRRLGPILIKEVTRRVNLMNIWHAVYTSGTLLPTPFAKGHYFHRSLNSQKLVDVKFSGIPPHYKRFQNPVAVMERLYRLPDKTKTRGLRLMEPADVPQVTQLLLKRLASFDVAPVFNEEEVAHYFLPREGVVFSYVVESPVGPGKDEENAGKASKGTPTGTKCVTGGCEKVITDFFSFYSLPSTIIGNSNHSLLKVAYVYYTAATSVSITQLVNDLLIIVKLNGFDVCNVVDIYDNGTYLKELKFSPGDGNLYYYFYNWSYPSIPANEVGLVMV

Molecule: 3-((2,6-Dichloro-4-(3-(piperidin-4-yl)propyl)phenoxy)methyl)-2-methylpyridine [Compound 70]
- activity against TbNMT (in words): no in vitro activity

Molecule: Cc1nn(C)c(C)c1COc1cccc(-c2cccc(C3CCNCC3)c2)c1 [Compound 17, 4-(3′-((1,3,5-Trimethyl-1H-pyrazol-4-yl)methoxy)-[1,1′-biphenyl]-3-yl)piperidine]
- activity against TbNMT (in words): completely inactive
